For series [1], the system named is Hepa1-6 mouse liver cells. The experiment in a line: ATP content (CellTiter-Glo) in Hepa1-6 cells. Conditions: data not shown. The format is cell-based. How it is done:
(§1) Hepa1-6 mouse liver cells were maintained in DMEM medium containing 4.5 g/l glucose and 10% fetal calf serum. Hepa1-6 cells were incubated for 48 h with doxycycline or chloramphenicol (both Sigma) in medium containing 1 g/l glucose, with 1% (v/v) oleate-BSA (Sigma) supplementation, and without any other antibiotics. Oxygen consumption in Hepa1-6 cells was measured using the Seahorse XF24 equipment (Watanabe et al., 2006, Nature 439, 484), and normalized for protein content. ATP content was measured using CellTiter-Glo (Promega), according to the manufacturer's protocol.

In series [2] the test system is C57BL/6N mice. The experiment in a line: Mouse indirect calorimetry (CLAMS). It counts as in vivo. Conditions: C57BL/6 mice, chow containing doxycycline for 10 days, data not shown. Here is the method:
Wild type C57BL/6N mice were treated for 10 days with 50 mpkd doxycycline (Sigma) in food admix. Oxygen consumption (VO2), respiratory exchange ratios (RER), and activity were monitored by indirect calorimetry using the comprehensive laboratory animal monitoring system (CLAMS) (Columbus Instruments, Columbus, Ohio, USA).

Series [3] has as its system C. elegans. The experiment in a line: Worm lifespan analysis. It counts as in vivo. Particulars: antibiotic from eggs to L4 larval stage, heat-killed bacteria; 20° C. Here is the method:
Lifespan tests were performed as described (Mouchiroud et al., 2011, Aging Cell 10, 39). Briefly, 60-100 animals were used per conditions and scored every other day. All lifespan experiments were performed at 20° C. […] Treatments with antibiotics (carbenicillin, doxycycline, and chloramphenicol (all Sigma)) were performed with heat-killed bacteria (Wood et al., 2004, Nature 430, 686). Carbenicillin, doxycycline, and chloramphenicol were added at the indicated concentrations. Animals were exposed to antibiotics from eggs to L4 larval stage and then shifted on plates seeded with live OP50 bacteria.

For series [4], the system named is C. elegans. The experiment in a line: Worm respiration assay (Seahorse XF24). It counts as in vivo. Conditions: worms treated with antibiotic. How it is done:
Treatments with antibiotics (carbenicillin, doxycycline, and chloramphenicol (all Sigma)) were performed with heat-killed bacteria (Wood et al., 2004, Nature 430, 686). Carbenicillin, doxycycline, and chloramphenicol were added at the indicated concentrations. Animals were exposed to antibiotics from eggs to L4 larval stage and then shifted on plates seeded with live OP50 bacteria. Oxygen consumption was measured using the Seahorse XF24 equipment (Seahorse Bioscience Inc., North Billerica, Mass.). Typically, 200 animals per conditions were recovered from NGM plates with M9 medium, washed three times in 2 mL M9 to eliminate residual bacteria, and resuspended in 500 μL M9 medium. Worms were transferred in 24-well standard Seahorse plates (#100777-004) (50 worms per well) and oxygen consumption was measured 6 times. Respiration rates were normalized to the number of worms in each individual well.

The test system of series [5] is mitochondrial unfolded protein response (UPR^mt). The series is described as follows: UPR^mt GFP reporter worms (hsp-6::GFP). It counts as in vivo, C. elegans. Particulars: Day 1 adults. Here is the method:
Treatments with antibiotics (carbenicillin, doxycycline, and chloramphenicol (all Sigma)) were performed with heat-killed bacteria (Wood et al., 2004, Nature 430, 686). Carbenicillin, doxycycline, and chloramphenicol were added at the indicated concentrations. Animals were exposed to antibiotics from eggs to L4 larval stage and then shifted on plates seeded with live OP50 bacteria. GFP expression and quantification were carried out according to the protocol previously described (Durieux et al, 2011, Cell 144, 79). Briefly, GFP was monitored in Day 1 adults. Fluorimetric assays were performed using a Victor X4 multilabel plate reader (Perkin-Elmer Life Science). Eighty roller worms were picked at random (20 worms per well of a black-walled 96-well plate) and each well was read four times and averaged. Each experiment was repeated at least twice. For picture acquisition, animals were mounted on 2% agarose pads in a droplet of 10 mM tetramisole (Sigma) and examined using a Zeiss Axioplan-2 microscope (Carl Zeiss MicroImaging, Thornwood, N.Y., USA) equipped for both DIC and epifluorescence. Images were obtained using a Coolsnap ES^2 camera.

Series [6] has as its system Hepa1-6 mouse liver cells. The series is described as follows: Oxygen consumption in Hepa1-6 cells (Seahorse XF24). The format is cell-based. Conditions: 48 h incubation, normalized for protein content. Here is the method: as §1

With `C[C@H]1c2cccc(O)c2C(=O)C2=C(O)[C@]3(O)C(=O)C(C(N)=O)=C(O)[C@@H](N(C)C)[C@@H]3[C@@H](O)[C@@H]21` [doxycycline], the “cell viability as measured by ATP levels” value in series [1] is “without affecting cell viability”. In series [2], the activity result is reported as “without changes”, the body weight entry is listed as “without changes” and the food intake result was “without changes”.

Consider `O=C(N[C@H](CO)[C@H](O)c1ccc([N+](=O)[O-])cc1)C(Cl)Cl` [chloramphenicol], for which the “lifespan of C. elegans” value in series [3] is “extended lifespan”. Besides, in series [4], the “oxygen consumption (respiration) of C. elegans” value is “decreased respiration”. In series [5], the “UPR^mt induction in C. elegans” value is “induced UPR^mt”. In series [6], the “respiration (oxygen consumption) in Hepa1-6 cells” value is “decreased respiration”.
